Source: patent EP0052564A1, “Derivatives of 2-thiazolyl-oxamic acid substituted in position 4 by a thienyl or furyl radical, their preparation and use as pharmaceutical preparations” (PIERRE FABRE S.A., priority 1980, dated 1982)

Experiment: Solubility (in water, ethanol, methyl pyrrolidone)
Assay type: physicochemical
Conditions: for Solubilités : dans la méthyl pyrrolidone: methyl pyrrolidone; for Solubilités : dans l'eau: water; for Solubilités : dans l'éthanol: ethanol

Compound	Solubilités : dans la méthyl pyrrolidone [%]	Solubilités : dans l'eau	Solubilités : dans l'éthanol [%]
(α thienyl-4 thiazolyl-2) oxamate d'éthanolamine [Exemple 5]	15	insoluble	
CCOC(=O)C(=O)Nc1nc(-c2ccco2)cs1 [Exemple 7, (α furyl-4 thiazolyl-2) oxamate d'éthyle]	50	insoluble	3
(α thienyl-4 thiazolyl-2) oxamate de zinc [Exemple 4]	50	insoluble	
CCOC(=O)C(=O)Nc1nc(-c2ccsc2)cs1 [Exemple 6, ( β thienyl-4 thiazolyl-2) oxamate d'éthyle]	50	insoluble	
O=C(O)C(=O)Nc1nc(-c2cccs2)cs1 [Exemple 2, Acide (α thienyl-4 thiazolyl-2) oxamique]	50	insoluble	
O=C(O)C(=O)Nc1nc(-c2cccs2)cs1 [Exemple 3, (α thienyl-4 thiazolyl-2) oxamate de sodium]	15	insoluble	
CCOC(=O)C(=O)Nc1nc(-c2cccs2)cs1 [Exemple 1, (α thienyl-4 thiazolyl-2) oxamate d'éthyle]	50	insoluble	1
O=C(O)C(=O)Nc1nc(-c2ccco2)cs1 [Exemple 8, Acide (α furyl-4 thiazolyl-2) oxamique]	25	insoluble	
